# In patent US10167262B2, “Herbicidal substituted 3-arylpyrazoles” (FMC CORPORATION, priority 2014, dated 2019):
# How the values were obtained:
# Format in all cases: in vivo
# [1] = tested on: Brazilian crabgrass (Digitaria horizontalis); experiment: Test E pre-/postemergence greenhouse test, plant response rating 0-100; details: Digitaria horizontalis, post-emergence, Postemergence, scale 0 to 100, read-out: Plant response rating, Crabgrass, Brazil
# Procedure, shortened: (§1)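 Seeds sown in silt loam soil received preemergence treatment with compound in a non-phytotoxic solvent mixture containing surfactant. Postemergence, plants at 2–18 cm (1- to 4-leaf stage) in peat/vermiculite medium were sprayed with the same formulation. Visual injury versus untreated controls was rated 0–100 after 14 to 21 days in the greenhouse.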
# [2] = tested on: Italian ryegrass (Lolium multiflorum); experiment: as above; details: Lolium multiflorum, post-emergence, Postemergence, scale 0 to 100
# Procedure, shortened: as §1
# [3] = tested on: arrowleaf sida (Sida rhombifolia); experiment: as above; details: Sida rhombifolia, post-emergence, Postemergence
# Procedure, shortened: as §1
# corn (Zea mays) = experiment: as above; details: Zea mays, post-emergence, Postemergence, scale 0 to 100
# Procedure, shortened: as §1
# [4] = tested on: dayflower (Virginia (VA) dayflower, Commelina virginica); experiment: as above; details: Commelina virginica, post-emergence, Postemergence, scale 0 to 100
# Procedure, shortened: as §1
# [5] = tested on: fall panicum (Panicum dichotomiflorum); experiment: as above; details: Panicum dichotomiflorum, post-emergence, Postemergence, scale 0 to 100
# Procedure, shortened: as §1
# [6] = tested on: field bindweed (Convolvulus arvensis); experiment: as above; details: Convolvulus arvensis, post-emergence, Postemergence, scale 0 to 100
# Procedure, shortened: as §1
# [7] = tested on: palmer pigweed (Amaranthus palmeri); experiment: as above; details: Amaranthus palmeri, post-emergence, Postemergence, scale 0 to 100
# Procedure, shortened: as §1
# [8] = tested on: waterhemp (common waterhemp, Amaranthus rudis); experiment: as above; details: Amaranthus tuberculatus, post-emergence, Postemergence, scale 0 to 100
# Procedure, shortened: as §1
# [9] = tested on: wild poinsettia (Euphorbia heterophylla); experiment: as above; details: Euphorbia heterophylla, post-emergence, read-out: Plant response rating, Poinsettia, Wild
# Procedure, shortened: as §1
# [10] = tested on: waterhemp_RES2, (ALS & HPPD resistant common waterhemp, Amaranthus rudis); experiment: Test E postemergence greenhouse test, plant response rating 0-100; details: scale 0 to 100
# Description: At the same time, plants from these crop and weed species and also waterhemp_RES1, (ALS & Triazine resistant common waterhemp, Amaranthus rudis), and waterhemp_RES2, (ALS & HPPD resistant common waterhemp, Amaranthus rudis) were planted in pots containing Redi-Earth® planting medium (Scotts Company, 14111 Scottslawn Road, Marysville, Ohio 43041) comprising spaghnum peat moss, vermiculite, wetting agent and starter nutrients were treated with postemergence applications of test chemicals formulated in the same manner. Plants ranged in height from 2 to 18 cm for postemergence treatments (1- to 4-leaf stage).
# Treated plants and controls were maintained in a greenhouse for 14 to 21 days, after which time all species were compared to controls and visually evaluated. Plant response ratings, summarized in Table E, are based on a scale of 0 to 100 where 0 is no effect and 100 is complete control. A dash (-) response means no test result.
compound,measurement,setting,value
"CCCn1cc(C(=O)c2ccccc2)c(-c2cc(Cl)cc(Cl)c2)n1 [Compound 61, [3-(3,5-dichlorophenyl)-1-propyl-1H-pyrazol-4-yl]phenylmethanone]",pest or weed control at 31 g/ha,[1]; 31 g ai/ha,0%
same,pest or weed control at 62 g/ha,[1]; 62 g ai/ha,0%
same,pest or weed control at 125 g/ha,[1]; 125 g ai/ha,0%
same,pest or weed control at 250 g/ha,[1]; 250 g ai/ha,0%
same,pest or weed control at 500 g/ha,[1]; 500 g ai/ha,0%
same,pest or weed control at 31 g/ha,[2]; 31 g ai/ha,0%
same,pest or weed control at 62 g/ha,[2]; 62 g ai/ha,0%
same,pest or weed control at 125 g/ha,[2]; 125 g ai/ha,0%
same,pest or weed control at 250 g/ha,[2]; 250 g ai/ha,0%
same,pest or weed control at 500 g/ha,[2]; 500 g ai/ha,0%
same,pest or weed control at 31 g/ha,"[3]; 31 g ai/ha, scale 0 to 100",30%
same,pest or weed control at 62 g/ha,"[3]; 62 g ai/ha, scale 0 to 100",40%
same,pest or weed control at 125 g/ha,"[3]; 125 g ai/ha, scale 0 to 100",40%
same,pest or weed control at 250 g/ha,"[3]; 250 g ai/ha, scale 0 to 100",60%
same,pest or weed control at 500 g/ha,"[3]; 500 g ai/ha, scale 0 to 100 (0 no effect, 100 complete control)",70%
same,"Corn plant response rating (crop injury, 0 = no effect, 100 = complete kill) at 31 g/ha",corn (Zea mays); 31 g ai/ha,0%
same,"Corn plant response rating (crop injury, 0 = no effect, 100 = complete kill) at 62 g/ha",corn (Zea mays); 62 g ai/ha,0%
same,"Corn plant response rating (crop injury, 0 = no effect, 100 = complete kill) at 125 g/ha",corn (Zea mays); 125 g ai/ha,0%
same,"Corn plant response rating (crop injury, 0 = no effect, 100 = complete kill) at 250 g/ha",corn (Zea mays); 250 g ai/ha,0%
same,"Corn plant response rating (crop injury, 0 = no effect, 100 = complete kill) at 500 g/ha",corn (Zea mays); 500 g ai/ha,0%
same,pest or weed control at 31 g/ha,[4]; 31 g ai/ha,0%
same,pest or weed control at 62 g/ha,[4]; 62 g ai/ha,0%
same,pest or weed control at 125 g/ha,[4]; 125 g ai/ha,0%
same,pest or weed control at 250 g/ha,[4]; 250 g ai/ha,0%
same,pest or weed control at 500 g/ha,[4]; 500 g ai/ha,0%
same,pest or weed control at 31 g/ha,[5]; 31 g ai/ha,0%
same,pest or weed control at 62 g/ha,[5]; 62 g ai/ha,0%
same,pest or weed control at 125 g/ha,[5]; 125 g ai/ha,0%
same,pest or weed control at 250 g/ha,[5]; 250 g ai/ha,0%
same,pest or weed control at 500 g/ha,[5]; 500 g ai/ha,0%
same,pest or weed control at 31 g/ha,[6]; 31 g ai/ha,0%
same,pest or weed control at 62 g/ha,[6]; 62 g ai/ha,0%
same,pest or weed control at 125 g/ha,[6]; 125 g ai/ha,0%
same,pest or weed control at 250 g/ha,[6]; 250 g ai/ha,0%
same,pest or weed control at 500 g/ha,[6]; 500 g ai/ha,5%
same,pest or weed control at 31 g/ha,[7]; 31 g ai/ha,50%
same,pest or weed control at 62 g/ha,[7]; 62 g ai/ha,60%
same,pest or weed control at 125 g/ha,[7]; 125 g ai/ha,60%
same,pest or weed control at 250 g/ha,[7]; 250 g ai/ha,80%
same,pest or weed control at 500 g/ha,[7]; 500 g ai/ha,95%
same,pest or weed control at 31 g/ha,[8]; 31 g ai/ha,20%
same,pest or weed control at 62 g/ha,[8]; 62 g ai/ha,30%
same,pest or weed control at 125 g/ha,[8]; 125 g ai/ha,75%
same,pest or weed control at 250 g/ha,[8]; 250 g ai/ha,100%
same,pest or weed control at 31 g/ha,[9],0%
same,pest or weed control at 62 g/ha,[9],0%
same,pest or weed control at 125 g/ha,[9],0%
same,pest or weed control at 250 g/ha,[9],10%
same,pest or weed control at 500 g/ha,[9],30%
same,"Plant response rating, Waterhemp_RES2",[10]; 31 g ai/ha,20
same,"Plant response rating, Waterhemp_RES2",[10]; 125 g ai/ha,40
same,"Plant response rating, Waterhemp_RES2",[10]; 500 g ai/ha,95
